14 compounds from US7517902B2, “Substituted indazoles, compositions containing the same, and the preparation and use thereof” (Aventis Pharma S.A., priority 2004, dated 2009) can be followed below.

Holding throughout (format): biochemical
One experiment deals with T1, Aurora2 (Homo sapiens, UniProt O14965).
T1 construct: Aurora 2: whole recombinant protein comprising an N-terminal histidine tail; His tag (histidine tail) (N); made in house; host or cells: E. coli
T1 sequence (O14965 1-403): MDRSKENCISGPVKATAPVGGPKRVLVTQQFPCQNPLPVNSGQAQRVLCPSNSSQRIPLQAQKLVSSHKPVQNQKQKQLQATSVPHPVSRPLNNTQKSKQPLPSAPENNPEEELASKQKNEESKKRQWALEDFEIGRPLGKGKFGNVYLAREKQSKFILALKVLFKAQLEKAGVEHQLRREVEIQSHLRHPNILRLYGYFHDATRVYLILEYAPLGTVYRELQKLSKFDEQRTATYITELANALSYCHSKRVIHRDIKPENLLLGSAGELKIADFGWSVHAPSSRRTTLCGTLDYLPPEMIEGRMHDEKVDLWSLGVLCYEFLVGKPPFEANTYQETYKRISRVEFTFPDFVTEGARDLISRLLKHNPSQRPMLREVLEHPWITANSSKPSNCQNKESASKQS
In words: Aurora2 enzyme assay, NuMA substrate phosphorylation (Flashplate). The conditions noted are these: read-out: IC 50 Aurora2. The method, then:
The inhibitory effect of compounds with respect to the kinases Aurora1 and Aurora2 is determined by an enzyme assay employing radioactivity detection.
The kinase activity of Aurora 1 and Aurora 2 is evaluated by the phosphorylation of the substrate Numa-histidine in the presence of radiolabeled ATP ([^33P]ATP), using 96-well Flashplate plates in which nickel chelate is fixed to the surface of the microplate. The amount of ^33P phosphate incorporated in the NuMA substrate is proportional to the activity of the enzyme Aurora1 or Aurora2.
The proteins are produced in the protein production laboratory of the SanofiAventis group.
Aurora 2: whole recombinant protein comprising an N-terminal histidine tail, expressed in E. coli and purified to more than 82%.
NuMA (nuclear protein that associates with the mitotic apparatus) fragment of 424 amino acids, expressed in E. coli, whose N-terminal end has been labeled with histidine and used as a substrate for the two Aurora enzymes.
The microplates used are 96-well Flash-Plate plates with nickel chelate (Perkin Elmer, model SMP107).
The products for evaluation are incubated in a reaction volume of 100 μL per well in the presence of 10 nM of Aurora 1 or Aurora 2, 500 nM of NuMA substrate in a buffer composed of 50 mM of Tris/HCl (pH 7.5), 50 mM NaCl, 5 mM MgCl2 (Aurora-B) or 10 mM MgCl2 (Aurora-A) and 1 mM of DTT, at 37° C.
In each well, 80 μL of the enzyme/substrate incubation buffer are distributed, followed by 10 μL of the product to be evaluated, in variable concentrations. The reaction is initiated by adding 1 μM of final ATP containing 0.2 μCi of [^33P]ATP (10 μL). After 30 minutes of incubation, the reaction is terminated by simply removing the reaction buffer and each well is washed twice with 300 μl of the Tris/HCl buffer. The radioactivity is then measured in each well by means of a scintillation apparatus, Packard, Top count model.
The control enzyme activity of Aurora is expressed by the number of counts per minute obtained within 30 minutes, after deduction of the background noise (reaction mixture not containing the enzyme). The evaluation of the various test products is expressed in percentage inhibition of the Aurora activity relative to the control.

In a further experiment the target is T2, human KDR enzyme (Homo sapiens, UniProt P35968).
T2 construct: The cytoplasmic domain of the human KDR enzyme was cloned in the form of a GST fusion; GST; made in house; host or cells: SF21 insect cells (baculovirus, pFastBac)
In words: KDR substrate phosphorylation assay (scintillation, 96-well plate). The method, then: The inhibitory effect of the compounds is determined in an assay of substrate phosphorylation by the KDR enzyme in vitro using a scintillation technique (96-well plate, NEN).
The cytoplasmic domain of the human KDR enzyme was cloned in the form of a GST fusion into the baculovirus expression vector pFastBac. The protein was expressed in SF21 cells and purified to approximately 60% homogeneity.
The KDR kinase activity is measured in 20 mM MOPS, 10 mM MgCl2, 10 mM MnCl2, 1 mM DTT, 2.5 mM EGTA, 10 mM β-glycerophosphate, pH=7.2, in the presence of 10 mM MgCl2, 100 μM Na3VO4, 1 mM NaF. 10 μl of the compound are added to 70 μl of kinase buffer, containing 100 ng of KDR enzyme at 4° C. The reaction is triggered by adding 20 μl of solution containing 2 μg of substrate (SH2-SH3 fragment of PLCγ expressed in the form of a GST fusion protein), 2 μCi γ^33P[ATP] and 2 μM cold ATP. After 1 hour of incubation at 37° C., the reaction is stopped by adding 1 volume (100 μl) of 200 mM EDTA. The incubation buffer is withdrawn and the wells are washed three times with 300 μl of PBS. The radioactivity is measured in each well using a Top Count NXT radioactivity counter (Packard).
The background noise is determined by measuring the radioactivity in four different wells containing the radioactive ATP and the substrate alone.
A control for total activity is measured in four different wells containing all of the reagents (γ^33P-[ATP], KDR and PLCγ substrate), but in the absence of compound.
The inhibition of KDR activity with the compound of the invention is expressed in percentage inhibition of the control activity determined in the absence of compound.
The compound SU5614 (Calbiochem) (1 μM) is included in each plate as an inhibition control.

A further experiment concerns the target T3, human Tie2 (Homo sapiens, UniProt Q02763).
T3 construct: amino acids of the intracellular domain 776-1124; made in house
In words: Tie2 assay of PLC phosphorylation (FlashPlate). Particulars: read-out: IC 50 TIE2. The method, then:
The coding sequence of human Tie2, corresponding to the amino acids of the intracellular domain 776-1124, was generated by PCR, using the cDNA isolated from human placenta as a model. This sequence was introduced into a baculovirus expression vector pFastBacGT in the form of a GST fusion protein.
The inhibitory effect of the molecules is determined in an assay of PLC phosphorylation by Tie2 in the presence of GST-Tie2 purified to approximately 80% homogeneity. The substrate is composed of the SH2-SH3 fragments of PLC expressed in the form of a GST fusion protein.
The kinase activity of Tie2 is measured in a 20 mM MOPS buffer, pH 7.2, containing 10 mM MgCl2, 10 mM MnCl2, 1 mM DTT, 10 mM of glycerol-phosphate. In a 96-well FlashPlate plate, kept on ice, a reaction mixture is deposited which is composed of 70 μl of kinase buffer containing 100 ng of GST-Tie2 enzyme per well. Subsequently 10 μl of the test molecule diluted to a concentration of 10% maximum in DMvSO are added. For a given concentration, each measurement is carried out in quadruplicate. The reaction is initiated by adding 20 μl of solution containing 2 μg of GST-PLC, 2 μM of cold ATP and 1 μCi of ^33P[ATP]. After 1 hour of incubation at 37° C., the reaction is terminated by adding 1 volume (100 μl) of 200 mM EDTA. Following removal of the incubation buffer, the wells are washed three times with 300 μl of PBS. The radioactivity is measured on a Wallac MicroBeta 1450.
The inhibition of Tie2 activity is calculated and expressed as a percentage inhibition relative to the control activity determined in the absence of compound.

Structures can show the parent of a compound that is named as a salt.

T3 sequence (Q02763 776-1124): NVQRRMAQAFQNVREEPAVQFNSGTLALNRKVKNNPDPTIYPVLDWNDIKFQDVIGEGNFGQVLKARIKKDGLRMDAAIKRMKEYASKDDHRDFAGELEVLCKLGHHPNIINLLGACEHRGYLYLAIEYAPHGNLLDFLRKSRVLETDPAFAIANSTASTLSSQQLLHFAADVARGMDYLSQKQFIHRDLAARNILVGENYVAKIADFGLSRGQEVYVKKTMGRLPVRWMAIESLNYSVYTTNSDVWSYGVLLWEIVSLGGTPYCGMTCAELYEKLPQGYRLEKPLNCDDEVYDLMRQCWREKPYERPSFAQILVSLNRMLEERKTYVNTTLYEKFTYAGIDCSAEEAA
T2 sequence (P35968 786-1356 limits assumed): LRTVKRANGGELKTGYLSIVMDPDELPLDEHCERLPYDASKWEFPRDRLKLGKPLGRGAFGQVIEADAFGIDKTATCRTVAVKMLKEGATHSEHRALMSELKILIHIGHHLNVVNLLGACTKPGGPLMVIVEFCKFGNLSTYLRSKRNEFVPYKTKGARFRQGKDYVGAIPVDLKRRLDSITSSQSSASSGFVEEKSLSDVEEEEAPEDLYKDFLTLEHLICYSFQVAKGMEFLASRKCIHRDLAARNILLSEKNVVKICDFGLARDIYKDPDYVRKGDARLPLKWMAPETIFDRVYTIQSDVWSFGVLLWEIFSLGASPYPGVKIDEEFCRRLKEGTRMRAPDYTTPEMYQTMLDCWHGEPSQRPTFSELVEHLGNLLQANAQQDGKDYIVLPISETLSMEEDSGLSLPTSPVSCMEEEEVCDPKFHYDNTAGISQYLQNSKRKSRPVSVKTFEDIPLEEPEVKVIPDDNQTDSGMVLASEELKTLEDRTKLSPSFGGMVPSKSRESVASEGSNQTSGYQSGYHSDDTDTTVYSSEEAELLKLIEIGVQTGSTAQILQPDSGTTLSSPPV

With `Nc1n[nH]c2cc(-c3ccc(NC(=O)Nc4cc(C(F)(F)F)ccc4F)cc3)ccc12` [Example 1, 1-[4-(3-Amino-1H-indazol-6-yl)phenyl]-3-(2-fluoro-5-trifluoromethylphenyl)urea hydrochloride], the IC50 at Aurora2 came to 113 nM; against human KDR enzyme, 33 nM; at human Tie2, 1780 nM.

`Nc1ccc(-c2ccc3c(NC(=O)c4ccsc4)n[nH]c3c2F)cc1` [Example 4, 6-(4-Aminophenyl)-7-fluoro-3-[(thiophen-3-yl)carbonylamino]-1H-indazole hydrochloride]: the figures for the IC50 on Aurora2, on human KDR enzyme and at human Tie2 were 465 nM, 164 nM and 799 nM, respectively.

As to `O=C(Nc1ccc(-c2ccc3c(NC(=O)c4ccsc4)n[nH]c3c2F)cc1)Nc1cc(C(F)(F)F)ccc1F` [Example 6, 1-(4-{7-Fluoro-3-[(thiophen-3-yl)carbonylamino]-1H-indazol-6-yl}phenyl)-3-(2-fluoro-5-trifluoromethylphenyl)urea], the IC50 on Aurora2 is 36 nM; on human KDR enzyme, 8 nM; on human Tie2, 9 nM.

Take `Nc1n[nH]c2c(F)c(-c3ccc(NC(=O)Nc4cc(C(F)(F)F)ccc4F)cc3)ccc12` [Example 7, 1-[4-(3-Amino-7-fluoro-1H-indazol-6-yl)phenyl]-3-(2-fluoro-5-trifluoro-methylphenyl)urea hydrochloride]: the IC50 at Aurora2 is 172 nM; on human KDR enzyme, 122 nM; at human Tie2, 51 nM.

In the case of `O=C(Nc1ccc(-c2c(F)c(F)c3c(NC(=O)c4ccsc4)n[nH]c3c2F)cc1)Nc1cc(C(F)(F)F)ccc1F` [Example 9, 1-(4-{4,5,7-Trifluoro-3-[(thiophen-3-yl)carbonylamino]-1H-indazol-6-yl}-phenyl)-3-(2-fluoro-5-trifluoromethylphenyl)urea], the IC50 at Aurora2 stood at 1750 nM; at human KDR enzyme it was 693 nM; on human Tie2, 46 nM.

As to `O=C(Nc1ccc(-c2ccc3c(NC(=O)c4ccsc4)n[nH]c3c2)cc1)Nc1cc(C(F)(F)F)ccc1F` [Example 10, 1-(4-[3-[(Thiophen-3-yl)carbonylamino]-1H-indazol-6-yl}phenyl)-3-(2-fluoro-5-trifluoromethylphenyl)urea], the results for the IC50 at Aurora2, against human KDR enzyme and at human Tie2 were 171 nM, 166 nM and 18 nM, respectively.

For `O=C(Nc1ccc(-c2ccc3c(NC(=O)c4ccsc4)n[nH]c3c2F)cc1F)Nc1cc(C(F)(F)F)ccc1F` [Example 11, 1-(4-{7-Fluoro-3-[(thiophen-3-yl)carbonylamino]-1H-indazol-6-yl}-2-fluorophenyl)-3-(2-fluoro-5-trifluoromethylphenyl)urea], the IC50 at Aurora2 was found to be 185 nM; against human KDR enzyme, 37 nM; on human Tie2, 11 nM.

For `O=C(Nc1ccccc1)Nc1ccc(-c2ccc3c(NC(=O)c4ccsc4)n[nH]c3c2F)cc1` [Example 12, 1-(4-{7-Fluoro-3-[(thiophen-3-yl)carbonylamino]-1H-indazol-6-yl}phenyl)-3-phenylurea], the results for the IC50 on Aurora2, on human KDR enzyme and at human Tie2 were 14 nM, 2770 nM and 36 nM, respectively.

Regarding `CC(C)(C)c1cc(NC(=O)Nc2ccc(-c3ccc4c(NC(=O)c5ccsc5)n[nH]c4c3F)cc2)no1` [Example 13, 1-(4-{7-Fluoro-3-[(thiophen-3-yl)carbonylamino]-1H-indazol-6-yl}phenyl)-3-(5-tert-butylisoxazol-3-yl)urea], the IC50 turned out to be 65 nM on Aurora2, 29 nM against human KDR enzyme and 31 nM at human Tie2.

Turning to `O=C(Nc1ccc(-c2ccc3c(NC(=O)c4ccsc4)n[nH]c3c2F)cc1)Nc1ccccc1F` [Example 14, 1-(4-{7-Fluoro-3-[(thiophen-3-yl)carbonylamino]-1H-indazol-6-yl}phenyl)-3-(2-fluorophenyl)urea], the IC50 at Aurora2 was determined as 23 nM; on human KDR enzyme, 4220 nM; on human Tie2, 50 nM.

Regarding `O=C(Nc1ccc(-c2ccc3c(NC(=O)c4ccsc4)n[nH]c3c2F)cc1)Nc1cccc(C(F)(F)F)c1` [Example 15, 1-(4-{7-Fluoro-3-[(thiophen-3-yl)carbonylamino]-1H-indazol-6-yl}phenyl)-3-(5-trifluoromethylphenyl)urea], the IC50 on Aurora2 was 28 nM; on human KDR enzyme, 40 nM; on human Tie2, 20 nM.

For the compound `Cc1ccc(-n2nc(C(C)(C)C)cc2NC(=O)Nc2ccc(-c3ccc4c(NC(=O)c5ccsc5)n[nH]c4c3F)cc2)cc1` [Example 16, 1-(4-{7-Fluoro-3-[(thiophen-3-yl)carbonylamino]-1H-indazol-6-yl}phenyl)-3-(5-tert-butyl-2-p-tolyl-2H-pyrazol-3-yl)urea], the values for the IC50 on Aurora2, at human KDR enzyme and at human Tie2 were 142 nM, 19 nM and 3 nM, respectively.

In the case of `Nc1n[nH]c2c(F)c(-c3ccc(NC(=O)Nc4ccccc4)cc3)ccc12` [Example 20, 1-[4-(3-Amino-7-fluoro-1H-indazol-6-yl)phenyl]-3-phenylurea], the values for the IC50 at Aurora2 and on human Tie2 were 63 nM and 502 nM, respectively.

`O=C(Nc1ccc(-c2ccc3c(NC(=O)c4ccsc4)n[nH]c3c2F)cn1)Nc1cc(C(F)(F)F)ccc1F` [Example 24, 1-(5-{7-Fluoro-3-[(thiophen-3-yl)carbonylamino]-1H-indazol-6-yl}pyridin-2-yl)-3-(2-fluoro-5-trifluoromethylphenyl)urea]: on human Tie2, the IC50 was 229 nM.
